Data from article PMC5177531 (ACS chemical neuroscience, 2016).
Where two headings read alike, the source gives them in different places. Non-standard residues stand in square brackets, D forms with d. Residues, ends and D or L forms follow the SMILES beside them. Dmt = Cc1cc(O)cc(C)c1C[C@H](N)C(=O)O; Tic = O=C(O)[C@@H]1Cc2ccccc2CN1; βAla = NCCC(=O)O; Sar = CNCC(=O)O

Key:
[1] = test system: C57Bl/6 wild type (WT) and exon 11 KO (E11 KO) mice; conditions: cited from earlier work
[2] = test system: C57Bl/6 wild type (WT) and exon 11 KO (E11 KO) mice; assay: Radiant heat tail flick analgesia in wild type and exon 11 KO mice; format: in vivo, mouse; conditions: for analgesic ED50: tail flick
[3] = target: 125I-IDAPP binding sites in C57/Bl6 brain homogenates (Mus musculus, UniProt P42866)
MOR-1 variants (Oprm1) [4] = format: in vivo, mouse; conditions: knockout and/or antisense models; Figs. 2,3,4
[5] = test system: brain membranes (WT, E11 KO, E1/E11 KO); assay: 35S-GTPγS binding in brain membranes
mDOR = mDOR (Mus musculus, UniProt P32300); assay: 35S-GTPγS binding in mDOR-CHO membranes; conditions: read-out: Max stimulation (% over basal)
MOR-1 variants (Oprm1) [6] = conditions: mouse, in vivo; cited from earlier work
6TM/E11 = 6TM/E11 (Mus musculus, UniProt P42866); assay: Competition binding versus 125I-IBNtxA at the 6TM-containing
mMOR-1 = mMOR-1 (Mus musculus, UniProt P42866); assay: Competition binding versus 125I-IBNtxA in mMOR-CHO membranes
mDOR-1 = mDOR-1 (Mus musculus, UniProt P32300); assay: Competition binding versus 125I-IBNtxA in mDOR-CHO membranes
mKOR-1 = mKOR-1 (Mus musculus, UniProt P33534); assay: Competition binding versus 125I-IBNtxA in mKOR-CHO membranes
[7] = test system: E1/E11 KO and E11 KO mice; conditions: cited from earlier work
[8] = target: 3H-DAMGO binding sites in C57 brain tissue (Mus musculus, UniProt P42866)
MOR-1 = MOR-1 (Mus musculus, UniProt P42866); assay: Competition of 3H-DAMGO binding in CHO cells expressing MOR-1
CD-1 mice = assay: Cross tolerance in morphine pelleted mice, tail flick analgesia; format: in vivo, mouse; conditions: for analgesic ED50: i.c.v., 72 hr
mMOR = mMOR (Mus musculus, UniProt P42866); assay: 35S-GTPγS binding in mMOR-CHO membranes; conditions: read-out: Max stimulation (% over basal)
mKOR = mKOR (Mus musculus, UniProt P33534); assay: 35S-GTPγS binding in mKOR-CHO membranes; conditions: read-out: Max stimulation (% over basal)
[9] = target: spinal cord membranes (WT, E11 KO) (Mus musculus, UniProt P42866); assay: 35S-GTPγS binding in spinal cord membranes
[10] = E11 KO mice, supraspinal (i.c.v.; IDAPP also i.t.)
[11] = 0.1 nM 125I-IDAPP, C57/Bl6 brain homogenates, no blockers

CN1CC[C@]23c4c5ccc(O)c4O[C@H]2[C@@H](O)C=C[C@H]3[C@H]1C5 [Morphine]
analgesic activity in E11 KO mice [1]: maintaining full analgesic activity

NC(=O)[C@H](Cc1ccccc1)NC(=O)[C@H](Cc1c[nH]c2ccccc12)NC(=O)[C@@H]1CCCN1C(=O)[C@@H](N)Cc1ccc(O)cc1 [Endomorphin 1, Tyr-Pro-Trp-Phe-NH2]
analgesic activity in E11 KO mice [2, 10]: eliminated the analgesic response | analgesic ED50 ([2]; WT C57Bl/6 mice, i.c.v.): 3.39 µg | Hill Slope [3]: −0.7 ± 0.1 | MOR-1 Variants required for analgesia (MOR-1 variants (Oprm1) [4]): 7TM + 6TM | Max stimulation (% over basal) ([5]; E1/E11 KO): −5 ± 3 % over basal | EC50 ([5]; E11 KO): 17 ± 7 nM | Max stimulation (% over basal) ([5]; E11 KO): 23 ± 1 % over basal | EC50 ([5]; WT): 222 ± 31 nM | Max stimulation (% over basal) ([5]; WT): 39 ± 2 % over basal | Emax (mDOR): -3 ± 1%

DPDPE
MOR-1 Variants required for analgesia (MOR-1 variants (Oprm1) [6]): 7TM + 6TM

C[C@@H](NC(=O)[C@@H](N)Cc1ccc(O)cc1)C(=O)N[C@@H](Cc1ccccc1)C(=O)N[C@@H](Cc1ccccc1)C(N)=O [TAPP, Tyr-D-Ala-Phe-Phe-NH2] (H-Y[dA]FF-NH2)
Ki (6TM/E11): 130 ± 16 nM | Ki (mMOR-1): 3 ± 0.2 nM | Ki (mDOR-1): 3 ± 0.1 nM | Ki (mKOR-1): > 500 nM

C[C@@H](NC(=O)[C@@H](N)Cc1ccc(O)cc1)C(=O)N[C@@H](Cc1ccccc1)C(=O)NCC(=O)N[C@@H](Cc1ccc(O)cc1)C(=O)N1CCC[C@H]1C(=O)N[C@@H](CO)C(N)=O [Dermorphin, Tyr-D-Ala-Phe-Gly-Tyr-Pro-Ser-NH2]
Ki (6TM/E11): > 500 nM | Ki (mMOR-1): 4 ± 0.5 nM

COC(=O)[C@@H]1C[C@H](OC(C)=O)C(=O)[C@H]2[C@@]1(C)CC[C@H]1C(=O)O[C@H](c3ccoc3)C[C@]21C [Salvinorin A]
MOR-1 Variants required for analgesia (MOR-1 variants (Oprm1) [6]): 6TM

CC[C@H](C)[C@H](NC(=O)[C@H](Cc1ccccc1)NC(=O)[C@H](Cc1ccccc1)NC(=O)[C@@H](C)NC(=O)[C@@H](N)Cc1ccc(O)cc1)C(N)=O [TAPPI, Tyr-D-Ala-Phe-Phe-Ile-NH2] (H-Y[dA]FFI-NH2)
Ki (6TM/E11): 100 ± 10 nM | Ki (mMOR-1): 0.2 ± 0.2 nM | Ki (mDOR-1): 6 ± 0.1 nM

C[C@@H](NC(=O)[C@@H](N)Cc1ccc(O)cc1)C(=O)N[C@@H](Cc1ccccc1)C(=O)N(C)CC(N)=O [TAPS, Tyr-D-Ala-Phe-Sar-NH2] (H-Y[dA]F[Sar]-NH2)
Ki (6TM/E11): 50 ± 8 nM | Ki (mMOR-1): 6 ± 0.7 nM | Ki (mDOR-1): 35 ± 2 nM | Ki (mKOR-1): > 500 nM

CC(C)[C@H](NC(=O)[C@H](Cc1ccccc1)NC(=O)[C@H](Cc1ccccc1)NC(=O)[C@@H](C)NC(=O)[C@@H](N)Cc1ccc(O)cc1)C(N)=O [TAPPV, Tyr-D-Ala-Phe-Phe-Val-NH2] (H-Y[dA]FFV-NH2)
Ki (6TM/E11): > 500 nM | Ki (mMOR-1): > 500 nM

C[C@@H](NC(=O)[C@@H](N)Cc1ccc(O)cc1)C(=O)N[C@@H](Cc1ccccc1)C(=O)NCCC(N)=O [TAPA, Tyr-D-Ala-Phe-βAla-NH2] (H-Y[dA]F[βAla]-NH2)
Ki (6TM/E11): 40 ± 7 nM | Ki (mMOR-1): 11 ± 0.3 nM | Ki (mDOR-1): 48 ± 1 nM | Ki (mKOR-1): > 500 nM

N[C@@H](Cc1ccc(O)cc1)C(=O)N1Cc2ccccc2C[C@H]1C(=O)N[C@@H](Cc1ccccc1)C(=O)N[C@@H](Cc1ccccc1)C(=O)O [TIPP, Tyr-Tic-Phe-Phe-OH] (H-Y[Tic]FF-OH)
Ki (6TM/E11): 163 ± 12 nM | Ki (mMOR-1): > 500 nM | Ki (mKOR-1): > 500 nM

Clc1cccc(Cl)c1N=C1NCCN1 [Clonidine]
MOR-1 Variants required for analgesia (MOR-1 variants (Oprm1) [6]): 6TM

NC(=O)[C@H](Cc1ccccc1)NC(=O)[C@H](Cc1ccccc1)NC(=O)[C@@H]1CCCN1C(=O)[C@@H](N)Cc1ccc(O)cc1 [Endomorphin 2, Tyr-Pro-Phe-Phe-NH2]
analgesic activity in E11 KO mice [2, 10]: eliminated the analgesic response | analgesic ED50 ([2]; WT C57Bl/6 mice, i.c.v.): 1.14 µg | MOR-1 Variants required for analgesia (MOR-1 variants (Oprm1) [4]): 7TM + 6TM | Max stimulation (% over basal) ([5]; E1/E11 KO): 1 ± 1 % over basal | EC50 ([5]; E11 KO): 103 ± 8 nM | Max stimulation (% over basal) ([5]; E11 KO): 24 ± 2 % over basal | EC50 ([5]; WT): 151 ± 43 nM | Max stimulation (% over basal) ([5]; WT): 35 ± 1 % over basal | Emax (mDOR): -3 ± 2%

O=C(N[C@@H]1CC[C@@]2(O)[C@H]3Cc4ccc(O)c5c4[C@@]2(CCN3CC2CC2)[C@H]1O5)c1cccc(I)c1 [IBNtxA, 3-iodobenzoyl-6β-naltrexamide]
rescue of analgesia by mMOR-1G lentivirus in E1/E11 KO mice [7]: able to rescue | MOR-1 Variants required for analgesia (MOR-1 variants (Oprm1) [6]): 6TM

C[C@@H](O)[C@H](NC(=O)[C@H]1NC(=O)[C@H]([C@@H](C)O)NC(=O)[C@H](CCCN=C(N)N)NC(=O)[C@@H](Cc2c[nH]c3ccccc23)NC(=O)[C@H](Cc2ccc(O)cc2)NC(=O)[C@@H](NC(=O)[C@H](N)Cc2ccccc2)CSSC1(C)C)C(N)=O [CTAP, D-Phe-Cys-Tyr-D-Trp-Arg-Thr-Pen-Thr-NH2]
Ki [3]: 1.1 ± 0.3 nM | IC50 [8]: 4.1 ± 0.2 nM | IC50 (MOR-1): 4.8 ± 0.4 nM

Oc1ccc2c3c1O[C@H]1c4[nH]c5ccccc5c4C[C@@]4(O)[C@@H](C2)N(CC2CC2)CC[C@]314 [Naltrindole]
Ki [3, 11]: > 1000 nM

Oc1ccc2c3c1O[C@H]1c4[nH]c5c(c4C[C@@]4(O)[C@@H](C2)N(CC2CC2)CC[C@]314)C[C@@]1(O)[C@H]2Cc3ccc(O)c4c3[C@@]1(CCN2CC1CC1)[C@H]5O4 [NorBNI]
Ki [3, 11]: > 1000 nM

C[C@H]1[C@H]2C(=O)c3ccc(O)cc3[C@@]1(C)CCN2CC1CC1 [Ketocyclazocine]
MOR-1 Variants required for analgesia (MOR-1 variants (Oprm1) [6]): 6TM

C=CCN1C[C@H](C)N([C@H](c2ccc(C(=O)N(CC)CC)cc2)c2cccc(OC)c2)C[C@H]1C [SNC80]
Ki [3]: > 1000 nM | MOR-1 Variants required for analgesia (MOR-1 variants (Oprm1) [6]): 7TM + 6TM

CN1CC[C@]23c4c5ccc(O)c4O[C@H]2[C@@H](O[C@@H]2O[C@H](C(=O)O)[C@@H](O)[C@H](O)[C@H]2O)C=C[C@H]3[C@H]1C5 [M6G]
Hill Slope [3]: −0.6 ± 0.1 | Ki [3]: 0.7 ± 0.3 nM

CC[C@H](C)[C@H](NC(=O)[C@H](Cc1ccccc1)NC(=O)[C@H](Cc1ccccc1)NC(=O)[C@@H](C)NC(=O)[C@@H](N)Cc1c(C)cc(O)cc1C)C(N)=O [DAPPI, Dmt-D-Ala-Phe-Phe-Ile-NH2] (H-[Dmt][dA]FFI-NH2)
Ki (mMOR-1): 0.3 ± 0.1 nM | Ki (mDOR-1): 0.3 ± 0.2 nM | Ki (mKOR-1): 7 ± 0.4 nM

Cc1cccc([C@H](C)c2cnc[nH]2)c1C [Dexmedetomidine]
MOR-1 Variants required for analgesia (MOR-1 variants (Oprm1) [6]): 6TM

C[C@@H](NC(=O)[C@@H](N)Cc1ccc(O)cc1)C(=O)NCC(=O)N(C)[C@@H](Cc1ccccc1)C(=O)NCCO [DAMGO, [D-Ala^2,N-MePhe^4,Gly(ol)^5]-enkephalin]
analgesic ED50 ([2]; E11 KO mice, i.c.v.): 0.23 µg | analgesic ED50 ([2]; E11 KO mice, i.t.): 0.27 µg | analgesic activity in E11 KO mice ([2]; E11 KO mice, spinal (i.t.)): still elicited a full response | analgesic activity in E11 KO mice [2, 10]: retained full analgesic activity | analgesic ED50 ([2]; WT C57Bl/6 mice, i.c.v.): 0.13 µg | analgesic ED50 ([2]; WT C57Bl/6 mice, i.t.): 0.02 µg | analgesic ED50 (CD-1 mice; morphine pellet (75 mg free base) CD-1 mice): 1.5 ± 0.47 µg | analgesia in morphine pelleted mice (cross tolerance) (CD-1 mice; morphine pelleted versus placebo): cross tolerant with morphine | analgesic ED50 (CD-1 mice; placebo pellet CD-1 mice): 0.04 ± 0.02 µg | Hill Slope [3, 11]: −0.9 ± 0.1 | MOR-1 Variants required for analgesia (MOR-1 variants (Oprm1) [4]): 7TM | Max stimulation (% over basal) ([5]; E1/E11 KO): −6 ± 1 % over basal | EC50 ([5]; E11 KO): 220 ± 13 nM | Max stimulation (% over basal) ([5]; E11 KO): 19 ± 6 % over basal | EC50 ([5]; WT): 190 ± 8 nM | Max stimulation (% over basal) ([5]; WT): 15 ± 2 % over basal | Emax (mMOR): 396 ± 21% | Emax (mDOR): -2 ± 7% | Emax (mKOR): -16 ± 8% | Emax ([9]; read-out: Max stimulation (% over basal), spinal cord, E11 KO): 7 ± 4% | Emax ([9]; read-out: Max stimulation (% over basal), spinal cord, WT): 11 ± 2%
